Test results from ChEMBL document CHEMBL3045406, “Enantioselective Relieving Activity of α-Methylbenzylphenylureas toward Bensulfuron-methyl Injury to Rice (Oryza sativa)” (Biosci Biotechnol Biochem, 1999).

Key:
[1] = test system: Oryza sativa; test: Relieving activity against bensulfuron-methyl induced injury to Oryza sativa (rice) assessed as growth rate at 0.1 uM (Rbv = 46 to 53%); type: functional
[2] = test system: Oryza sativa; test: Safener indices, ratio of compound effect of Oryza sativa (rice) growth rate to relieving activity against bensulfuron-methyl induced injury to Oryza sativa growth rate at 10 uM
[3] = test system: Oryza sativa; test: Safener indices, ratio of compound effect of Oryza sativa (rice) growth rate to relieving activity against bensulfuron-methyl induced injury to Oryza sativa growth rate at 0.1 uM
[4] = test system: Oryza sativa; test: Safener indices, ratio of compound effect of Oryza sativa (rice) growth rate to relieving activity against bensulfuron-methyl induced injury to Oryza sativa growth rate at 1 uM
[5] = test system: Oryza sativa; test: Relieving activity against bensulfuron-methyl induced injury to Oryza sativa (rice) assessed as growth rate at 1 uM (Rbv = 46 to 53%); type: functional
[6] = Hydrophobicity, log K of the compound; type: physicochemical; conditions: octanol/water
[7] = test system: Oryza sativa; test: Effect on Oryza sativa (rice) assessed as growth rate at 10 uM relative to control; type: organism-based; conditions: in vivo
[8] = test system: Oryza sativa; test: Relieving activity against bensulfuron-methyl induced injury to Oryza sativa (rice) assessed as growth rate at 10 uM (Rbv = 46 to 53%); type: functional
[9] = test system: Oryza sativa; test: Effect on Oryza sativa (rice) assessed as growth rate at 1 uM relative to control; type: organism-based; conditions: in vivo
[10] = test system: Oryza sativa; test: Effect on Oryza sativa (rice) assessed as growth rate at 0.1 uM relative to control; type: organism-based; conditions: in vivo

CCc1cccc(NC(=O)N[C@@H](C)c2ccccc2)c1
Activity [1]: 58%
Ratio [2]: 68
Ratio [3]: 15
Ratio [4]: 48
Activity [5]: 72%
log K [6]: 0.489
Activity [7]: 86%
Activity [8]: 82%
Activity [9]: 94%
Activity [10]: 100%

CCc1ccc(NC(=O)N[C@H](C)c2ccccc2)cc1
Activity [1]: 56%
Ratio [2]: 32
Ratio [3]: 15
Ratio [4]: 24
Activity [5]: 43%
log K [6]: 0.487
Activity [7]: 44%
Activity [8]: 47%
Activity [9]: 47%
Activity [10]: 95%

CCc1ccc(NC(=O)N[C@@H](C)c2ccccc2)cc1
Activity [1]: 74%
Ratio [2]: 72
Ratio [3]: 7
Ratio [4]: 62
Activity [5]: 80%
log K [6]: 0.487
Activity [7]: 91%
Activity [8]: 84%
Activity [9]: 95%
Activity [10]: 99%

CC(C)c1ccccc1NC(=O)N[C@H](C)c1ccccc1
Activity [1]: 43%
Ratio [2]: 24
Ratio [3]: -9
Ratio [4]: 3
Activity [5]: 48%
log K [6]: 0.487
Activity [7]: 17%
Activity [8]: 30%
Activity [9]: 101%
Activity [10]: 103%

CC(C)c1ccccc1NC(=O)N[C@@H](C)c1ccccc1
Activity [1]: 46%
Ratio [2]: 15
Ratio [3]: 1
Ratio [4]: 7
Activity [5]: 48%
log K [6]: 0.487
Activity [7]: 93%
Activity [8]: 52%
Activity [9]: 96%
Activity [10]: 99%

CC(C)c1cccc(NC(=O)N[C@H](C)c2ccccc2)c1
Activity [1]: 45%
Ratio [2]: 29
Ratio [3]: 16
Ratio [4]: 27
Activity [5]: 48%
log K [6]: 0.58
Activity [7]: 44%
Activity [8]: 43%
Activity [9]: 61%
Activity [10]: 74%

CC(C)c1cccc(NC(=O)N[C@@H](C)c2ccccc2)c1
Activity [1]: 47%
Ratio [2]: 47
Ratio [3]: 6
Ratio [4]: 26
Activity [5]: 55%
log K [6]: 0.58
Activity [7]: 86%
Activity [8]: 68%
Activity [9]: 84%
Activity [10]: 95%

CC(C)c1ccc(NC(=O)N[C@H](C)c2ccccc2)cc1
Activity [1]: 49%
Ratio [2]: 34
Ratio [3]: 7
Ratio [4]: 47
Activity [5]: 67%
log K [6]: 0.577
Activity [7]: 49%
Activity [8]: 49%
Activity [9]: 79%
Activity [10]: 99%

CC(C)c1ccc(NC(=O)N[C@@H](C)c2ccccc2)cc1
Activity [1]: 57%
Ratio [2]: 66
Ratio [3]: 21
Ratio [4]: 69
Activity [5]: 83%
log K [6]: 0.577
Activity [7]: 86%
Activity [8]: 79%
Activity [9]: 96%
Activity [10]: 98%

CCCc1ccc(NC(=O)N[C@H](C)c2ccccc2)cc1
Activity [1]: 32%
Ratio [2]: 24
Ratio [3]: 18
Ratio [4]: 20
Activity [5]: 33%
log K [6]: 0.602
Activity [7]: 35%
Activity [8]: 38%
Activity [9]: 31%
Activity [10]: 33%

CCCc1ccc(NC(=O)N[C@@H](C)c2ccccc2)cc1
Activity [1]: 66%
Ratio [2]: 50
Ratio [3]: 30
Ratio [4]: 47
Activity [5]: 68%
log K [6]: 0.602
Activity [7]: 73%
Activity [8]: 69%
Activity [9]: 76%
Activity [10]: 97%

C[C@@H](NC(=O)Nc1ccccc1C(C)(C)C)c1ccccc1
Activity [1]: 58%
Ratio [2]: 34
Ratio [3]: 15
Ratio [4]: 24
Activity [5]: 61%
log K [6]: 0.535
Activity [7]: 17%
Activity [8]: 40%
Activity [9]: 95%
Activity [10]: 100%

C[C@H](NC(=O)Nc1ccccc1C(C)(C)C)c1ccccc1
Activity [1]: 52%
Ratio [2]: 31
Ratio [3]: 3
Ratio [4]: 14
Activity [5]: 57%
log K [6]: 0.535
Activity [7]: 100%
Activity [8]: 66%
Activity [9]: 99%
Activity [10]: 101%

C[C@@H](NC(=O)Nc1ccc(C(C)(C)C)cc1)c1ccccc1
Activity [1]: 58%
Ratio [2]: 42
Ratio [3]: 15
Ratio [4]: 35
Activity [5]: 64%
log K [6]: 0.673
Activity [7]: 53%
Activity [8]: 57%
Activity [9]: 88%
Activity [10]: 100%
